Results published in ChEMBL document CHEMBL4483862, “Open-source discovery of chemical leads for next-generation chemoprotective antimalarials” (2018).
pIC50: −log10 of the molar value.

Test system: Plasmodium berghei
Experiment: Luciferase/luciferin-expressing antifolate-resistant parasites were used to infect a culture of HepG2 cells that were pre-incubated with compounds. Infected hepatocytes emit light due to the luciferase reaction. Assay results are presented as the percent inhibition of light emission compared to control. […]
Type: functional
Conditions: sporozoite; for pIC50: read-out: LUCIFERASE INFECTION ASSAY - IC50; for IC90: read-out: LUCIFERASE INFECTION ASSAY - IC90

CCOc1ccc(-n2c(SCC(=O)N(C)Cc3ccccc3)nc3ccccc32)cc1
pIC50: < 5.00 | IC90: > 10 µM

CC1CCc2nc3ccccc3c(C(=O)OC(C)C(=O)NCCC3=CCCCC3)c2C1 (stereo unspecified)
pIC50: < 5.00 | IC90: > 10 µM

COc1ccc(-c2ccc(-c3nc4c(c(=O)[nH]c(=O)n4CC(C)C)n3CC(C)C)o2)c([N+](=O)[O-])c1
pIC50: < 5.00 | IC90: > 10 µM

CN(CC(=O)Nc1ccc(Cl)c(C(F)(F)F)c1)Cc1ccc(O)c2ncccc12
pIC50: 7.19 | IC90: 0.191 µM

Cc1n[nH]c(=S)n1C1CCCCC1
pIC50: < 5.00 | IC90: > 10 µM

CC(C)C1CCC(C)C(OCC(O)CN2CCN(Cc3ccc4c(c3)OCO4)CC2)C1 (stereo unspecified)
pIC50: < 5.00 | IC90: > 10 µM

Cc1ccc(N(CCC#N)C(=O)COC(=O)c2c3c(nc4ccccc24)/C(=C/c2c(F)cccc2Cl)CC3)cc1
pIC50: < 5.00 | IC90: > 10 µM

COc1ccc(-n2c(SCc3nc4ccccc4s3)nc3ccccc32)cc1
pIC50: < 5.00 | IC90: > 10 µM

Cc1c(-c2ccccc2)nc2ccccc2c1C(=O)OCC(=O)c1cc(C)n(Cc2ccco2)c1C
pIC50: < 5.00 | IC90: > 10 µM

C=CCn1c(SCC(=O)c2cc(C)n(-c3ccc(OC)cc3)c2C)nc2sc(-c3ccccc3)cc2c1=O
pIC50: < 5.00 | IC90: > 10 µM

CC(=O)c1c(C)[nH]c(C(=O)OC(c2ccccc2)c2ccc(Cl)cc2)c1C (stereo unspecified)
pIC50: < 5.00 | IC90: > 10 µM

C=CCn1c(SCC(=O)Nc2scc(-c3ccc(C(C)(C)C)cc3)c2C(=O)OCC)nc2sc3c(c2c1=O)CCC3
pIC50: < 5.00 | IC90: > 10 µM

CCCCn1c(SCc2cc(=O)oc3cc(C)c(C(C)C)cc23)nc2cc(S(N)(=O)=O)ccc21
pIC50: < 5.00 | IC90: > 10 µM

CC(C)N(C(=O)COn1nnc2ccc(S(=O)(=O)N(C)C)cc21)C(C)C
pIC50: < 5.00 | IC90: > 10 µM

COCC(C)n1c(C)cc(C(=O)CSc2ncnc3sc(C)c(C)c23)c1C (stereo unspecified)
pIC50: < 5.00 | IC90: > 10 µM

Cc1ccc(Sc2ccc(/C=C/C(=O)c3ccc(Cl)c(Cl)c3Cl)cc2[N+](=O)[O-])cc1
pIC50: < 5.00 | IC90: > 10 µM

C=CCn1c(SC(C(=O)c2c[nH]c3ccccc23)c2ccccc2)nc2ccccc2c1=O (stereo unspecified)
pIC50: 5.08 | IC90: > 10 µM

Clc1ccccc1OCc1nnc(SCc2csc(-c3ccccc3)n2)o1
pIC50: < 5.00 | IC90: > 10 µM

CC1CCc2c(sc3nc(CN4CCOCC4)nc(N4CCN(S(=O)(=O)/C=C/c5ccccc5)CC4)c23)C1 (stereo unspecified)
pIC50: < 5.00 | IC90: > 10 µM

CCN(CC)CCn1c(NC(=O)c2cc3c(C)nn(-c4ccc(Cl)cc4)c3s2)nc2ccccc21
pIC50: < 5.00 | IC90: > 10 µM

O=C(c1ccccc1)C(Sc1nnc(Cc2cccs2)n1CCc1ccccc1)c1ccccc1 (stereo unspecified)
pIC50: < 5.00 | IC90: > 10 µM

C=C(C)C(=O)Oc1ccc(Oc2c(F)c(F)c(-c3c(F)c(F)c(Oc4ccc(OC(=O)C(=C)C)cc4)c(F)c3F)c(F)c2F)cc1
pIC50: < 5.00 | IC90: > 10 µM

Cc1cc(Nc2nc3ccccc3nc2N2CCN(/C=C/c3ccccc3)CC2)n(-c2ccccc2)n1
pIC50: < 5.00 | IC90: > 10 µM

CC(C)(C)c1cnnn1-c1ccc(C(=O)/C=C/c2ccccc2)cc1
pIC50: < 5.00 | IC90: > 10 µM

O=C(CSc1nnc(Cc2cccs2)n1C1CCCCC1)c1c[nH]c2ccccc12
pIC50: < 5.00 | IC90: > 10 µM

Cc1ccc(C(C)C)c(OCc2ccc(C(=O)N/N=C/c3cc(C)n(Cc4ccco4)c3C)cc2)c1
pIC50: < 5.00 | IC90: > 10 µM

Brc1ccc(C2C(c3nc4ccccc4[nH]3)=C(c3ccccc3)N=C(c3ccccc3)C2c2nc3ccccc3[nH]2)cc1 (stereo unspecified)
pIC50: < 5.00 | IC90: > 10 µM

O=C(OCC(=O)N1N=C(c2ccc(Cl)cc2)CC1c1ccco1)c1[nH]nc2ccccc12 (stereo unspecified)
pIC50: < 5.00 | IC90: > 10 µM

O=C(c1cn(-c2ccccc2)nc1-c1cc2ccccc2oc1=O)n1nnc2ccccc21
pIC50: 5.49 | IC90: 3.36 µM

O=C(CC(NC(=O)c1ccccc1Cl)c1ccccc1)Oc1ccc2c(c1)OCO2 (stereo unspecified)
pIC50: < 5.00 | IC90: > 10 µM

N#C/C(=C\c1ccc(N(c2ccccc2)c2ccccc2)cc1)C(=O)Nc1nccs1
pIC50: 6.28 | IC90: 1.79 µM

O=C(/C(=C/c1ccc(N2CCOCC2)cc1)c1nc2ccccc2[nH]1)c1cccc(Cl)c1
pIC50: < 5.00 | IC90: > 10 µM

CCOc1ccc(C(=O)c2c(-c3ccccc3)c3c4n(c(COc5cc(C)ccc5C(C)C)nn24)CCCC3)cc1
pIC50: 5.06 | IC90: > 10 µM

CCC(C)(C)c1ccc(OCC(=O)Nc2cccc(-c3nc(C)sc3C(=O)Nc3cc(Cl)ccc3Cl)c2)c(C(C)(C)CC)c1
pIC50: < 5.00 | IC90: > 10 µM

COc1ccc(-c2nnc(SCC(=O)c3[nH]c(C)c(C(C)=O)c3C)n2C2CCCCC2C)cc1 (stereo unspecified)
pIC50: < 5.00 | IC90: > 10 µM

C[C@@H](C(=O)NNC(=O)c1cccc(S(=O)(=O)N2CCOCC2)c1)N1C(=O)C2CC=CCC2C1=O (stereo partly specified)
pIC50: < 5.00 | IC90: > 10 µM

COc1ccc(S(=O)(=O)N(C)C)cc1NC(=O)CSc1cc(C)c2ccccc2n1
pIC50: < 5.00 | IC90: > 10 µM

Cc1cc(OCc2nc3ccc(Cl)cc3[nH]2)c(C(C)C)cc1Cl
pIC50: < 5.00 | IC90: > 10 µM
